Data as given in patent publication US20180289678A1, “PHARMACEUTICAL COMPOSITION, PHARMACEUTICAL DOSAGE FORM, PROCESS FOR THEIR PREPARATION, METHODS FOR TREATING AND USES THEREOF” (Boehringer Ingelheim International GmbH, priority 2009, published 2018).
Read-outs that look alike come from different tables or passages of the source.

Experiment: Study .2: multiple rising dose trial in diabetic patients, once daily for 8 days, pharmacokinetic parameters
Type: in vivo, human
Settings: for AUCτ,ss,norm Max / AUCτ,ss,norm Median / AUCτ,ss,norm Min / AUCτ,ss,norm gMean / Cmax,ss,norm Max / Cmax,ss,norm Median / Cmax,ss,norm Min / Cmax,ss,norm gMean: Study .2, steady state, dose-normalized
Procedure: 5. Pharmacokinetic Parameters
The pharmacokinetic parameters of pharmaceutical compositions and pharmaceutical dosage forms are assessed in healthy volunteer and patient populations. In the studies shown below, the participants fasted on the day of sampling, unless as otherwise stated (see for example study .3). The active substance in the studies below is the compound (I.9), preferably in the crystalline form (I.9X), and the dose of active ingredient is indicated in mg.
For the quantification of plasma concentrations of the active ingredient, 2.7 mL of blood was collected and transferred into an EDTA (ethylendiaminetetraacetic acid)-anticoagulant blood drawing tube. The EDTA-anticoagulated blood samples were centrifuged immediately after collection. Centrifugation lasted for about 10 minutes (at about 2,000×gf to 4,000×gf) at 4-8° C. or within 30 minutes while stored on ice. Concentrations of active substance in EDTA human plasma samples were quantitated using a HPLC/MS/MS method. The assay method comprised a solid phase supported liquid-liquid extraction of human plasma coupled with HPLC/MS/MS determination of the extracted samples. The HPLC/MS/MS assay was validated for the range of 1.11 to 1110 nM in human plasma.
Study .2: Multiple rising dose trial in a diabetic patient population of N=48, once daily administration for 8 days. Patients were administered tablets as described in Example 10 (section Examples of formulations).
AUC0-inf:area under the concentration-time curve of the analyte in plasma over the time interval from 0 extrapolated to infinity.
Cmax: maximum concentration of the analyte in plasma.
Tmax: time from dosing to maximum concentration.
AUCT,SS:area under the concentration-time curve of the analyte in plasma over the time interval from 0 to 24 h at steady-state.
Cmax,ss:maximum concentration of the analyte in plasma at steady state over a uniform dosing interval.
tmax,ss:time from dosing to maximum concentration at steady state.

[1] = 2.5 mg once daily, steady state, Study .2, fasted
[2] = 2.5 mg single dose, Study .2, fasted
[3] = 10 mg once daily, steady state, Study .2, fasted
[4] = 10 mg single dose, Study .2, fasted
[5] = 25 mg once daily, steady state, Study .2, fasted
[6] = 25 mg single dose, Study .2, fasted

OC[C@H]1O[C@@H](c2ccc(Cl)c(Cc3ccc(O[C@H]4CCOC4)cc3)c2)[C@H](O)[C@@H](O)[C@@H]1O [Compound (I.9), 1-chloro-4-(β-D-glucopyranos-1-yl)-2-[4-((S)-tetrahydrofuran-3-yloxy)-benzyl]-benzene]
AUCτ,ss Max [1]: 677 nM·h
AUCτ,ss Mean [1]: 471 nM·h
AUCτ,ss Min [1]: 283 nM·h
tmax,ss Median [1]: 1.50 h
tmax,ss Min [1]: 0.983 h
Cmax (2.5 mg once daily, steady state, Study .2, fasted, read-out: Cmax,ss Max): 0.0963 µM
Cmax (2.5 mg once daily, steady state, Study .2, fasted, read-out: Cmax,ss Mean): 0.0685 µM
Cmax (2.5 mg once daily, steady state, Study .2, fasted, read-out: Cmax,ss Min): 0.0403 µM
AUC0-inf Max [2]: 631 nM·h
AUC0-inf Min [2]: 326 nM·h
AUC0-inf,norm Max [2]: 252 nmol·h/L/mg
AUC0-inf,norm Median [2]: 200 nmol·h/L/mg
AUC0-inf,norm Min [2]: 130 nmol·h/L/mg
AUC0-inf,norm gMean [2]: 187 nmol·h/L/mg
Cmax,norm Max [2]: 32 nmol/L/mg
Cmax,norm Median [2]: 25 nmol/L/mg
Cmax,norm Min [2]: 17 nmol/L/mg
Cmax,norm gMean [2]: 25 nmol/L/mg
tmax Max [2]: 1.50 h
tmax Min [2]: 0.667 h
Cmax (2.5 mg single dose, Study .2, fasted, read-out: Cmax Max): 0.0812 µM
Cmax (2.5 mg single dose, Study .2, fasted, read-out: Cmax Mean): 0.0624 µM
Cmax (2.5 mg single dose, Study .2, fasted, read-out: Cmax Min): 0.0433 µM
AUCτ,ss Max [3]: 2580 nM·h
AUCτ,ss Mean [3]: 2030 nM·h
AUCτ,ss Min [3]: 1640 nM·h
tmax,ss Min [3]: 0.983 h
Cmax (10 mg once daily, steady state, Study .2, fasted, read-out: Cmax,ss Max): 0.479 µM
Cmax (10 mg once daily, steady state, Study .2, fasted, read-out: Cmax,ss Mean): 0.283 µM
Cmax (10 mg once daily, steady state, Study .2, fasted, read-out: Cmax,ss Min): 0.172 µM
AUC0-inf Max [4]: 2400 nM·h
AUC0-inf Min [4]: 1600 nM·h
AUC0-inf,norm Max [4]: 240 nmol·h/L/mg
AUC0-inf,norm Median [4]: 183 nmol·h/L/mg
AUC0-inf,norm Min [4]: 160 nmol·h/L/mg
AUC0-inf,norm gMean [4]: 189 nmol·h/L/mg
Cmax,norm Max [4]: 34 nmol/L/mg
Cmax,norm Median [4]: 23 nmol/L/mg
Cmax,norm Min [4]: 16 nmol/L/mg
Cmax,norm gMean [4]: 24 nmol/L/mg
tmax Median [4]: 1.50 h
tmax Min [4]: 0.983 h
Cmax (10 mg single dose, Study .2, fasted, read-out: Cmax Max): 0.344 µM
Cmax (10 mg single dose, Study .2, fasted, read-out: Cmax Mean): 0.245 µM
Cmax (10 mg single dose, Study .2, fasted, read-out: Cmax Min): 0.163 µM
AUCτ,ss Max [5]: 6650 nM·h
AUCτ,ss Mean [5]: 4990 nM·h
AUCτ,ss Min [5]: 3440 nM·h
tmax,ss Max [5]: 4.20 h
tmax,ss Min [5]: 0.667 h
Cmax (25 mg once daily, steady state, Study .2, fasted, read-out: Cmax,ss Max): 0.793 µM
Cmax (25 mg once daily, steady state, Study .2, fasted, read-out: Cmax,ss Mean): 0.63 µM
Cmax (25 mg once daily, steady state, Study .2, fasted, read-out: Cmax,ss Min): 0.443 µM
AUC0-inf Max [6]: 6920 nM·h
AUC0-inf Min [6]: 3690 nM·h
AUC0-inf,norm Max [6]: 277 nmol·h/L/mg
AUC0-inf,norm Median [6]: 186 nmol·h/L/mg
AUC0-inf,norm Min [6]: 148 nmol·h/L/mg
AUC0-inf,norm gMean [6]: 191 nmol·h/L/mg
Cmax,norm Max [6]: 36 nmol/L/mg
Cmax,norm Median [6]: 23 nmol/L/mg
Cmax,norm Min [6]: 17 nmol/L/mg
Cmax,norm gMean [6]: 24 nmol/L/mg
tmax Max [6]: 4.00 h
tmax Min [6]: 0.983 h
Cmax (25 mg single dose, Study .2, fasted, read-out: Cmax Max): 0.905 µM
Cmax (25 mg single dose, Study .2, fasted, read-out: Cmax Mean): 0.606 µM
Cmax (25 mg single dose, Study .2, fasted, read-out: Cmax Min): 0.42 µM
AUCτ,ss,norm Max (dose 2.5 mg, plasma): 271 nmol·h/L/mg
AUCτ,ss,norm Median (dose 2.5 mg, plasma): 183 nmol·h/L/mg
AUCτ,ss,norm Min (dose 2.5 mg, plasma): 113 nmol·h/L/mg
AUCτ,ss,norm gMean (dose 2.5 mg, plasma): 184 nmol·h/L/mg
Cmax,ss,norm Max (dose 2.5 mg, plasma): 39 nmol/L/mg
Cmax,ss,norm Median (dose 2.5 mg, plasma): 29 nmol/L/mg
Cmax,ss,norm Min (dose 2.5 mg, plasma): 16 nmol/L/mg
Cmax,ss,norm gMean (dose 2.5 mg, plasma): 27 nmol/L/mg
AUCτ,ss,norm Max (dose 10 mg, plasma): 258 nmol·h/L/mg
AUCτ,ss,norm Median (dose 10 mg, plasma): 194 nmol·h/L/mg
AUCτ,ss,norm Min (dose 10 mg, plasma): 164 nmol·h/L/mg
AUCτ,ss,norm gMean (dose 10 mg, plasma): 200 nmol·h/L/mg
Cmax,ss,norm Max (dose 10 mg, plasma): 48 nmol/L/mg
Cmax,ss,norm Median (dose 10 mg, plasma): 28 nmol/L/mg
Cmax,ss,norm Min (dose 10 mg, plasma): 17 nmol/L/mg
Cmax,ss,norm gMean (dose 10 mg, plasma): 27 nmol/L/mg
AUCτ,ss,norm Max (dose 25 mg, plasma): 266 nmol·h/L/mg
AUCτ,ss,norm Median (dose 25 mg, plasma): 182 nmol·h/L/mg
AUCτ,ss,norm Min (dose 25 mg, plasma): 138 nmol·h/L/mg
AUCτ,ss,norm gMean (dose 25 mg, plasma): 196 nmol·h/L/mg
Cmax,ss,norm Max (dose 25 mg, plasma): 32 nmol/L/mg
Cmax,ss,norm Median (dose 25 mg, plasma): 24 nmol/L/mg
Cmax,ss,norm Min (dose 25 mg, plasma): 18 nmol/L/mg
Cmax,ss,norm gMean (dose 25 mg, plasma): 25 nmol/L/mg
AUC (human, plasma, oral, 2.5 mg, 2.5 mg once daily, steady state, Study .2, fasted, read-out: AUCτ,ss Median): 458 nM·h
AUC (human, plasma, oral, 2.5 mg, 2.5 mg once daily, steady state, Study .2, fasted, read-out: AUCτ,ss gMean): 460 nM·h
Cmax (human, plasma, oral, 2.5 mg, 2.5 mg once daily, steady state, Study .2, fasted, read-out: Cmax,ss Median): 0.072 µM
Cmax (human, plasma, oral, 2.5 mg, 2.5 mg once daily, steady state, Study .2, fasted, read-out: Cmax,ss gMean): 0.0666 µM
Tmax (human, plasma, oral, 2.5 mg, 2.5 mg once daily, steady state, Study .2, fasted, read-out: tmax,ss Mean): 1.33 h
Tmax (human, plasma, oral, 2.5 mg, 2.5 mg once daily, steady state, Study .2, fasted, read-out: tmax,ss g Mean): 1.28 h
AUC(0-inf) (human, plasma, oral, 2.5 mg, 2.5 mg single dose, Study .2, fasted, read-out: AUC0-inf Mean): 476 nM·h
AUC(0-inf) (human, plasma, oral, 2.5 mg, 2.5 mg single dose, Study .2, fasted, read-out: AUC0-inf Median): 501 nM·h
AUC(0-inf) (human, plasma, oral, 2.5 mg, 2.5 mg single dose, Study .2, fasted, read-out: AUC0-inf gMean): 468 nM·h
Cmax (human, plasma, oral, 2.5 mg, 2.5 mg single dose, Study .2, fasted, read-out: Cmax Median): 0.0626 µM
Cmax (human, plasma, oral, 2.5 mg, 2.5 mg single dose, Study .2, fasted, read-out: Cmax gMean): 0.0613 µM
Tmax (human, plasma, oral, 2.5 mg, 2.5 mg single dose, Study .2, fasted, read-out: tmax Mean): 1.41 h
Tmax (human, plasma, oral, 2.5 mg, 2.5 mg single dose, Study .2, fasted, read-out: tmax Median): 1.5 h
Tmax (human, plasma, oral, 2.5 mg, 2.5 mg single dose, Study .2, fasted, read-out: tmax gMean): 1.37 h
AUC (human, plasma, oral, 10 mg, 10 mg once daily, steady state, Study .2, fasted, read-out: AUCτ,ss Median): 1940 nM·h
AUC (human, plasma, oral, 10 mg, 10 mg once daily, steady state, Study .2, fasted, read-out: AUCτ,ss gMean): 2000 nM·h
Cmax (human, plasma, oral, 10 mg, 10 mg once daily, steady state, Study .2, fasted, read-out: Cmax,ss Median): 0.279 µM
Cmax (human, plasma, oral, 10 mg, 10 mg once daily, steady state, Study .2, fasted, read-out: Cmax,ss gMean): 0.272 µM
Tmax (human, plasma, oral, 10 mg, 10 mg once daily, steady state, Study .2, fasted, read-out: tmax,ss Mean): 1.43 h
Tmax (human, plasma, oral, 10 mg, 10 mg once daily, steady state, Study .2, fasted, read-out: tmax,ss Median): 1.5 h
Tmax (human, plasma, oral, 10 mg, 10 mg once daily, steady state, Study .2, fasted, read-out: tmax,ss g Mean): 1.4 h
AUC(0-inf) (human, plasma, oral, 10 mg, 10 mg single dose, Study .2, fasted, read-out: AUC0-inf Mean): 1910 nM·h
AUC(0-inf) (human, plasma, oral, 10 mg, 10 mg single dose, Study .2, fasted, read-out: AUC0-inf Median): 1830 nM·h
AUC(0-inf) (human, plasma, oral, 10 mg, 10 mg single dose, Study .2, fasted, read-out: AUC0-inf gMean): 1890 nM·h
Cmax (human, plasma, oral, 10 mg, 10 mg single dose, Study .2, fasted, read-out: Cmax Median): 0.233 µM
Cmax (human, plasma, oral, 10 mg, 10 mg single dose, Study .2, fasted, read-out: Cmax gMean): 0.24 µM
Tmax (human, plasma, oral, 10 mg, 10 mg single dose, Study .2, fasted, read-out: tmax Mean): 1.5 h
Tmax (human, plasma, oral, 10 mg, 10 mg single dose, Study .2, fasted, read-out: tmax gMean): 1.48 h
AUC (human, plasma, oral, 25 mg, 25 mg once daily, steady state, Study .2, fasted, read-out: AUCτ,ss Median): 4560 nM·h
AUC (human, plasma, oral, 25 mg, 25 mg once daily, steady state, Study .2, fasted, read-out: AUCτ,ss gMean): 4890 nM·h
Cmax (human, plasma, oral, 25 mg, 25 mg once daily, steady state, Study .2, fasted, read-out: Cmax,ss Median): 0.603 µM
Cmax (human, plasma, oral, 25 mg, 25 mg once daily, steady state, Study .2, fasted, read-out: Cmax,ss gMean): 0.622 µM
Tmax (human, plasma, oral, 25 mg, 25 mg once daily, steady state, Study .2, fasted, read-out: tmax,ss Mean): 2.26 h
Tmax (human, plasma, oral, 25 mg, 25 mg once daily, steady state, Study .2, fasted, read-out: tmax,ss g Mean): 1.97 h
AUC(0-inf) (human, plasma, oral, 25 mg, 25 mg single dose, Study .2, fasted, read-out: AUC0-inf Mean): 4900 nM·h
AUC(0-inf) (human, plasma, oral, 25 mg, 25 mg single dose, Study .2, fasted, read-out: AUC0-inf Median): 4640 nM·h
AUC(0-inf) (human, plasma, oral, 25 mg, 25 mg single dose, Study .2, fasted, read-out: AUC0-inf gMean): 4780 nM·h
Cmax (human, plasma, oral, 25 mg, 25 mg single dose, Study .2, fasted, read-out: Cmax Median): 0.569 µM
Cmax (human, plasma, oral, 25 mg, 25 mg single dose, Study .2, fasted, read-out: Cmax gMean): 0.592 µM
Tmax (human, plasma, oral, 25 mg, 25 mg single dose, Study .2, fasted, read-out: tmax Mean): 1.72 h
Tmax (human, plasma, oral, 25 mg, 25 mg single dose, Study .2, fasted, read-out: tmax Median): 1.5 h
Tmax (human, plasma, oral, 25 mg, 25 mg single dose, Study .2, fasted, read-out: tmax gMean): 1.6 h
